Key:
Test in all cases: Kinase panel profiling at 1 µmol/L (mobility shift assay, Carna)
Format in all cases: biochemical
Details in all cases: 1 µmol/L of BTK inhibitor
[1] = biological target: T1, EPHA3 (Homo sapiens, UniProt P29320)
T1 construct: purchased Carna Biosciences
T1 sequence (P29320 21-983): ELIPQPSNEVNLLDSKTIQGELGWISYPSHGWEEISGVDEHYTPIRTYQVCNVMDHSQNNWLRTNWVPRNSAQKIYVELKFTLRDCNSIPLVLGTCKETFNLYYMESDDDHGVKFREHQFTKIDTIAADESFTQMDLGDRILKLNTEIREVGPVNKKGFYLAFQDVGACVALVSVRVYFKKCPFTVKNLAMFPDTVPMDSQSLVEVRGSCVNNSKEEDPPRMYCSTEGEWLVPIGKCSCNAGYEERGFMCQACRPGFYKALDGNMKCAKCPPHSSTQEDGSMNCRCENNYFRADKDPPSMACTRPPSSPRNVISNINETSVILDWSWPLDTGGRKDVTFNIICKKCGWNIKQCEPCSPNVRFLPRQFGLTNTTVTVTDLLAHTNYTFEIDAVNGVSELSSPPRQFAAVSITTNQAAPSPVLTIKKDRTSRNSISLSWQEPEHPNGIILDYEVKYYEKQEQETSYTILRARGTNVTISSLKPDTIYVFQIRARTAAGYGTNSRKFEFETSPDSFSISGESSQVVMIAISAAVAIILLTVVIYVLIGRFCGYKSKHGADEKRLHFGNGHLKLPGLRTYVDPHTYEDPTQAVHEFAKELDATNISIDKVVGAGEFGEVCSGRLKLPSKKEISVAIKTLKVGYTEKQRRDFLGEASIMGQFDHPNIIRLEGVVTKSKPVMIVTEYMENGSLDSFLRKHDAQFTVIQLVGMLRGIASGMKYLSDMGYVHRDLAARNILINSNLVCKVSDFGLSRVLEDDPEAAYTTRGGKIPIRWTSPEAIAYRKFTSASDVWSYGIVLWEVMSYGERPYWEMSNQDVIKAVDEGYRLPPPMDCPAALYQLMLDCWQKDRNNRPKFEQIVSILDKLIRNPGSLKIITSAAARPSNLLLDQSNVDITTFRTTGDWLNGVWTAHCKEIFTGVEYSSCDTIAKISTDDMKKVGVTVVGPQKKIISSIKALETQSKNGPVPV

[2] = biological target: T2, FLT1 (Homo sapiens, UniProt P17948)
T2 construct: purchased Carna Biosciences

[3] = biological target: T3, HCK (Homo sapiens, UniProt P08631)
T3 construct: purchased Carna Biosciences

[4] = biological target: T4, LYNa (Homo sapiens, UniProt P07948)
T4 construct: purchased Carna Biosciences

[5] = biological target: T5, PDGFRβ (Homo sapiens, UniProt P09619)
T5 construct: purchased Carna Biosciences

[6] = biological target: T6, TRKB (Homo sapiens, UniProt Q16620)
T6 construct: purchased Carna Biosciences

[7] = biological target: T7, ZAP70 (Homo sapiens, UniProt P43403)
T7 construct: purchased Carna Biosciences
T7 sequence (P43403 1-619): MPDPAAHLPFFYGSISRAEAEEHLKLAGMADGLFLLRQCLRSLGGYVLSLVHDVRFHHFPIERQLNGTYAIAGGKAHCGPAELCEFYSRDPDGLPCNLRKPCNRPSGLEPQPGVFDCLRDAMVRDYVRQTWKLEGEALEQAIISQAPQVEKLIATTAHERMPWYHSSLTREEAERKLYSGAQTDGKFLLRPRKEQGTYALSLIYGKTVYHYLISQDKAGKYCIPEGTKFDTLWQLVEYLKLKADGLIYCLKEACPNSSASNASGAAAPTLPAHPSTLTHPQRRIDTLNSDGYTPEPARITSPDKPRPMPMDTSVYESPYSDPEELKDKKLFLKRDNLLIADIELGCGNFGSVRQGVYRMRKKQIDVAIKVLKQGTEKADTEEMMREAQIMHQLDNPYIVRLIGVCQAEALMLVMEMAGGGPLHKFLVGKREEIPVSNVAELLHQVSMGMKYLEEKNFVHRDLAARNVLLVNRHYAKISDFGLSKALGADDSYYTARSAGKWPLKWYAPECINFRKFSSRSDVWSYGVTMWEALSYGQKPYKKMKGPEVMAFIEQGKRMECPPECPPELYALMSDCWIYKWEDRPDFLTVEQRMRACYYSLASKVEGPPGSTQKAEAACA

[8] = biological target: T8, CaMK1α (Homo sapiens, UniProt Q14012)
T8 construct: purchased Carna Biosciences

[9] = biological target: T9, JNK3 (Homo sapiens, UniProt P53779)
T9 construct: purchased Carna Biosciences

[10] = biological target: T10, MSSK1 (Homo sapiens, UniProt Q9UPE1)
T10 construct: purchased Carna Biosciences

[11] = biological target: T11, p38β (Homo sapiens, UniProt Q15759)
T11 construct: purchased Carna Biosciences

[12] = biological target: T12, PDK1 (Homo sapiens, UniProt O15530)
T12 construct: purchased Carna Biosciences
T12 sequence (O15530 1-556): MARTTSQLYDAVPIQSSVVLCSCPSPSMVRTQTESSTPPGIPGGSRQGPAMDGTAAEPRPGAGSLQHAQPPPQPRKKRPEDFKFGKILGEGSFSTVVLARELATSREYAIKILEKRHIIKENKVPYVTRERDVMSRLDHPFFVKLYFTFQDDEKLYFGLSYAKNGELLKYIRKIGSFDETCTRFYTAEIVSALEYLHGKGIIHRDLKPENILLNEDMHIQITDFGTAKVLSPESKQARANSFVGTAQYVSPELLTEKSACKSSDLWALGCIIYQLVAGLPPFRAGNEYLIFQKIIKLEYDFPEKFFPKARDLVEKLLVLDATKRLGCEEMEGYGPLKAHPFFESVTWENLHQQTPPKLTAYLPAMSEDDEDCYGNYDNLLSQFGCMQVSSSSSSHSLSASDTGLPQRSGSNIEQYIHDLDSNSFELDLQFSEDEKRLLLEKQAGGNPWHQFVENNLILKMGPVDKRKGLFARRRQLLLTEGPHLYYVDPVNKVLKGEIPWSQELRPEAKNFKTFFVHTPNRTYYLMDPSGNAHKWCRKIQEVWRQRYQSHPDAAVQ

[13] = biological target: T13, PLK1 (Homo sapiens, UniProt P53350)
T13 construct: purchased Carna Biosciences

[14] = biological target: T14, RSK1 (Homo sapiens, UniProt Q15418)
T14 construct: purchased Carna Biosciences

[15] = biological target: T15, SIK (Homo sapiens, UniProt P57059)
T15 construct: purchased Carna Biosciences
T15 sequence (P57059 whole entry): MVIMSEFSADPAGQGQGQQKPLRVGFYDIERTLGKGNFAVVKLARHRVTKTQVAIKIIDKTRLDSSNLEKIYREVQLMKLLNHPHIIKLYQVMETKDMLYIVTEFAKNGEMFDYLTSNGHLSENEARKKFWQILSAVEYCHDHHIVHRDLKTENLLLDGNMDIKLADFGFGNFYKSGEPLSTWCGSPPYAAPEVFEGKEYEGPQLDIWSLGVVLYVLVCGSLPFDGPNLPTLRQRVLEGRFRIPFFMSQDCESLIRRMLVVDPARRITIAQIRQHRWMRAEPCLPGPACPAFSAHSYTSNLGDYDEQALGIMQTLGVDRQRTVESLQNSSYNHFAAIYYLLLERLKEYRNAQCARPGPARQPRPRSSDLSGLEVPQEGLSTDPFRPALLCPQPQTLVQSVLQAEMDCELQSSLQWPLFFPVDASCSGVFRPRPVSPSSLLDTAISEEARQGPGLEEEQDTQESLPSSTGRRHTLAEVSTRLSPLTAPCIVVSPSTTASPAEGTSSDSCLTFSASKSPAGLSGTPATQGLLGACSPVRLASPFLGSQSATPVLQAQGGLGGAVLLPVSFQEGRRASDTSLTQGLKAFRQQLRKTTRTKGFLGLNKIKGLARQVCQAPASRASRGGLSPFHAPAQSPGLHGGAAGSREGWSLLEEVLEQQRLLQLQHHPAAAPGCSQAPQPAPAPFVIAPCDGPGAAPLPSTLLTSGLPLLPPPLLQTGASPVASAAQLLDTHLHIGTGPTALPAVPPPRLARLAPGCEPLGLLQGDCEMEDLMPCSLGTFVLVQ

T9 sequence (P53779 whole entry): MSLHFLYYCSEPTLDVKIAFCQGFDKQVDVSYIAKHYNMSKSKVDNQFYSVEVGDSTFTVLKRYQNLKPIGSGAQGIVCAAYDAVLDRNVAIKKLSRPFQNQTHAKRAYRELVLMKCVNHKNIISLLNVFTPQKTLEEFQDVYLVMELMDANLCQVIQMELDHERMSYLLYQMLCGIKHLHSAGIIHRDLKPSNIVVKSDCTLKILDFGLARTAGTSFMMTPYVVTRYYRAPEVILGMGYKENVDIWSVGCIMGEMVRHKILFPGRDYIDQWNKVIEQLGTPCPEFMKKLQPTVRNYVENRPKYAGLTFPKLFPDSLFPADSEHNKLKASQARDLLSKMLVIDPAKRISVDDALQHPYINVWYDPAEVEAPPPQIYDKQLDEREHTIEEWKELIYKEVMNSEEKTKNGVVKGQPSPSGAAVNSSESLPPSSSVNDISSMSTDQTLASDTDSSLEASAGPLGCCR
T13 sequence (P53350 whole entry): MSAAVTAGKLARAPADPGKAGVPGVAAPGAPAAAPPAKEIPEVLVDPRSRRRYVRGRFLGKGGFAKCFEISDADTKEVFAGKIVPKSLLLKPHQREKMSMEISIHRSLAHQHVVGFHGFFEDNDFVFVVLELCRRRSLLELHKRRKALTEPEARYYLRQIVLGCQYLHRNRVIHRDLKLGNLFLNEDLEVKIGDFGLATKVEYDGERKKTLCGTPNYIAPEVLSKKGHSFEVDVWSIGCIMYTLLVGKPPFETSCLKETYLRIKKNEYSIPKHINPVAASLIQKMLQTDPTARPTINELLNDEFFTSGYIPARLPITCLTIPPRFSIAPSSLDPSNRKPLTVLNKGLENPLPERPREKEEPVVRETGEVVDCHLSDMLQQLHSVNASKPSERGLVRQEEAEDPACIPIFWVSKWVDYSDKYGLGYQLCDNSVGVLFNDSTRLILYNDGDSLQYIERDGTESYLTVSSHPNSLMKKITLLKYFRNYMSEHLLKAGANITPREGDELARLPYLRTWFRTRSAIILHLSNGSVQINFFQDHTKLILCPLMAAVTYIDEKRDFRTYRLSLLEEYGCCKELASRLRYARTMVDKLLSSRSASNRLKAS
T14 sequence (Q15418 whole entry): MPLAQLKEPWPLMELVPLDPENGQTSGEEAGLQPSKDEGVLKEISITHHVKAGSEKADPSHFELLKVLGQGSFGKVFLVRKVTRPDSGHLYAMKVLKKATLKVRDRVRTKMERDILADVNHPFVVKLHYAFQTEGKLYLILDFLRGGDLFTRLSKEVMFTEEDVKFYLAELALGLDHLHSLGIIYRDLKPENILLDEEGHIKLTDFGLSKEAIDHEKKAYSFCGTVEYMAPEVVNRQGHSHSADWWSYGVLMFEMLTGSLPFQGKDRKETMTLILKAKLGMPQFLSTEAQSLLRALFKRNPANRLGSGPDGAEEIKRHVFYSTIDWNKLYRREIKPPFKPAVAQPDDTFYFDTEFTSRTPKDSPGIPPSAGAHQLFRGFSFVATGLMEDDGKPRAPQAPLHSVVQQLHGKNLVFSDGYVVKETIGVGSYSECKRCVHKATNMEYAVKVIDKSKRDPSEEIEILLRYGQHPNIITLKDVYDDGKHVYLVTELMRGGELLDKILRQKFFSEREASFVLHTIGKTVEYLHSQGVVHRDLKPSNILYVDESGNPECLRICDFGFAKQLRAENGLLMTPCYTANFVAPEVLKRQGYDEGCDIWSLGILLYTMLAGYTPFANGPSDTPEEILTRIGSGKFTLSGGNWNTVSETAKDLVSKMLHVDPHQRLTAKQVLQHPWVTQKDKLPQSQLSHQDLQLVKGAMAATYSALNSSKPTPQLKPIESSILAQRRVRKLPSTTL
T2 sequence (P17948 27-1338): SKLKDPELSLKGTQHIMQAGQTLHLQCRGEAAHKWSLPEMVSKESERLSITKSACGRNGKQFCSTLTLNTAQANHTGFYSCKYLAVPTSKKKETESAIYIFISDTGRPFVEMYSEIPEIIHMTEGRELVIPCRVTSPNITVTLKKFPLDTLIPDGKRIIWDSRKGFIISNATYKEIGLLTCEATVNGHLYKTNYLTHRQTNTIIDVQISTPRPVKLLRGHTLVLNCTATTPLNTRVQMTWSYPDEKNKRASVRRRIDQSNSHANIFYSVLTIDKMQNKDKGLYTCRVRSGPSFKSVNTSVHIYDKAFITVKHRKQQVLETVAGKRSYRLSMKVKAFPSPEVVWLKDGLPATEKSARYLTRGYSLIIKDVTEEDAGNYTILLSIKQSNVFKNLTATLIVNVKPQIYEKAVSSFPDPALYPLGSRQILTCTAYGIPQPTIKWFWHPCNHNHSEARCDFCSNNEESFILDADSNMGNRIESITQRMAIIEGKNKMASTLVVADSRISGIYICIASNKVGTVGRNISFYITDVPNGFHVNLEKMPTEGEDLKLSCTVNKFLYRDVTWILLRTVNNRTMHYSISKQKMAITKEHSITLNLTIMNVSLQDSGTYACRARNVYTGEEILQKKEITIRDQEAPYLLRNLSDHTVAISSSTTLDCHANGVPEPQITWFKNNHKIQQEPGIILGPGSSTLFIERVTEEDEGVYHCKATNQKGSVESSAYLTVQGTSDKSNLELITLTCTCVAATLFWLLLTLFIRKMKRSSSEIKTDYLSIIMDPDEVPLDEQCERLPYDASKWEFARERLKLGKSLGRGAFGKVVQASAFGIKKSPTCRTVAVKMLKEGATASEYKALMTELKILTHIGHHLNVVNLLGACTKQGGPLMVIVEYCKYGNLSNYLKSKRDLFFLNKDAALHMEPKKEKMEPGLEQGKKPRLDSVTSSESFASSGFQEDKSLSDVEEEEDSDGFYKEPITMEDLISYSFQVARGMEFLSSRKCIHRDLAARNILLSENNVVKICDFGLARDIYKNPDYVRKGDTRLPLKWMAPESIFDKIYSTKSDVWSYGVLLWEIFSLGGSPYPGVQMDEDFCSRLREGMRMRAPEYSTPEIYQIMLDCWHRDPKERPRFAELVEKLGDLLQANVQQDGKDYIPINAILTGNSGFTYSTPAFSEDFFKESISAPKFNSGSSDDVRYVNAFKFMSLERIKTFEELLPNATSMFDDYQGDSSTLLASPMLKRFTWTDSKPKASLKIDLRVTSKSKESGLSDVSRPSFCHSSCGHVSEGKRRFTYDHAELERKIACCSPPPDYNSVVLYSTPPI
T8 sequence (Q14012 whole entry): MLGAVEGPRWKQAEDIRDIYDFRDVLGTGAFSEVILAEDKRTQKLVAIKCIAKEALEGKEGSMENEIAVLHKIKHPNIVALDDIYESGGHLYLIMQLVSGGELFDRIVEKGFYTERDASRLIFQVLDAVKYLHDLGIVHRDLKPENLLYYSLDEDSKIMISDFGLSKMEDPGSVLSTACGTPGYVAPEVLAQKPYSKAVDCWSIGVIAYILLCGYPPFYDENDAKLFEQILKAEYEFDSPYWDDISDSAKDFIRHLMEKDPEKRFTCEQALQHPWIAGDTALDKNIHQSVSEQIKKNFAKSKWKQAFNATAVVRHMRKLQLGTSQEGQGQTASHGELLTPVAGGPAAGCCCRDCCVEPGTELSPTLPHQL
T3 sequence (P08631 whole entry): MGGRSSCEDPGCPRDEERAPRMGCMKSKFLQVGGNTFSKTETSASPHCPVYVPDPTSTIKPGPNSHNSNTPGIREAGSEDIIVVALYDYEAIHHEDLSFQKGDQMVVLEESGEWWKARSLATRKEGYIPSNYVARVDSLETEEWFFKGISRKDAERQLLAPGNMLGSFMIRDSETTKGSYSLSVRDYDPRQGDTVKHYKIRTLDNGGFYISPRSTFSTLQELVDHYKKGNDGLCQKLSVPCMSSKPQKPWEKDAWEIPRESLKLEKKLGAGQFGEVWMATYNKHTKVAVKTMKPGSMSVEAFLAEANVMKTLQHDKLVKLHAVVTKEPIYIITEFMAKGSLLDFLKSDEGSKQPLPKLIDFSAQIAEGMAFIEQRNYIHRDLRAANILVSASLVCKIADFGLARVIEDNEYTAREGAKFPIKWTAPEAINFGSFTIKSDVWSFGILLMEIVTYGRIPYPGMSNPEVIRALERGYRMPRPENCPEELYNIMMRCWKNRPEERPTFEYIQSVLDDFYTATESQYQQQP

SMILES | Percentage inhibition of kinase enzyme activity [1] | Percentage inhibition of kinase enzyme activity [2] | Percentage inhibition of kinase enzyme activity [3] | Percentage inhibition of kinase enzyme activity [4] | Percentage inhibition of kinase enzyme activity [5] | Percentage inhibition of kinase enzyme activity [6] | Percentage inhibition of kinase enzyme activity [7] | Percentage inhibition of kinase enzyme activity [8] | Percentage inhibition of kinase enzyme activity [9] | Percentage inhibition of kinase enzyme activity [10] | Percentage inhibition of kinase enzyme activity [11] | Percentage inhibition of kinase enzyme activity [12] | Percentage inhibition of kinase enzyme activity [13] | Percentage inhibition of kinase enzyme activity [14] | Percentage inhibition of kinase enzyme activity [15]
CC#CC(=O)N1CCC[C@H]1c1nc(-c2ccc(C(=O)Nc3ccccn3)cc2)c2c(N)nccn12 [acalabrutinib] | -2.07% | -1.14% | 0.45% | 1.93% | 5.36% | 13.81% | -1.53% | -4.29% | -0.89% | -4.86% | -3.08% | -1.47% | -2.57% | 3.57% | 0.26%
C=CC(=O)N1CCC[C@@H](n2nc(-c3ccc(Oc4ccccc4)cc3)c3c(N)ncnc32)C1 [ibrutinib] | 3.80% | 72.57% | 99.66% | 98.69% | 54.81% | 25.78% | -4.51% | 13.82% | 0.98% | 1.54% | 9.06% | -2.01% | -2.28% | 5.47% | 8.13%
O=C(c1ccc(Oc2ccccc2)cc1Cl)c1c[nH]c2ncnc(N[C@@H]3CC[C@@H](CO)OC3)c12 [nemtabrutinib] | 50.57% | 87.14% | 96.80% | 100.76% | 76.83% | 101.64% | 8.61% | 11.41% | -2.93% | -0.95% | 12.08% | 2.54% | 1.28% | 17.84% | 96.56%
COc1ccc(F)cc1C(=O)NCc1ccc(-c2nn([C@@H](C)C(F)(F)F)c(N)c2C(N)=O)cc1 [pirtobrutinib] | -5.46% | 4.85% | 24.69% | 46.22% | 5.87% | 4.46% | -3.75% | -9.87% | 0.49% | -8.63% | 2.61% | -1.19% | 1.53% | 5.53% | -2.28%
C=CC(=O)N1CCC([C@@H]2CCNc3c(C(N)=O)c(-c4ccc(Oc5ccccc5)cc4)nn32)CC1 [zanubrutinib] | -0.20% | 22.02% |  |  | 5.37% |  |  |  |  |  |  |  |  |  | 

Source: paper PMC12586182 (Frontiers in Oncology, 2025)
